What was measured:
Conditions in all cases: main component drawn
[1] = system: S. aureus Newman; test: fitness (endpoint OD595 vs no drug) (fraction); higher = more growth
Outline: (§1)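 Background-subtracted growth curves were the basis for fitness, taken as the optical density at entry into stationary phase over the robust mean of no-drug control wells. A cap of 1 was applied. The curves came from OD595 readings every 30 min for 14 h at 37 °C, in 384-well plates seeded at OD595 0.01 with 30 µl, or 55 µl for S. pneumoniae.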

[2] = system: B. subtilis 168; test: as above
Outline: as §1

[3] = system: S. aureus Newman; test: Bliss interaction score (quartile over a dose matrix) (fitness difference); higher = more antagonism (negative = synergy)
Outline: (§2)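 Combination data were used to infer fitness under each single drug. Fitness is the OD595 at entry into stationary phase divided by the robust mean of the plate's no-drug wells, with a cap of 1. The Bliss score is the observed minus the expected product fitness, summarised by quartiles over technical, biological and donor/recipient replicates.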

[4] = system: S. aureus DSM 20231; test: as above
Outline: as §2

[5] = system: S. pneumoniae D39V; test: as above
Outline: as §2

[6] = system: B. subtilis 168; test: as above
Outline: as §2
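For Bliss interaction score (quartile over a dose matrix) in this document: first quartile when negative (synergy) and third quartile when positive (antagonism).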

CC[C@H](C)[C@H](N)C1=N[C@H](C(=O)N[C@@H](CC(C)C)C(=O)N[C@H](CCC(=O)O)C(=O)N[C@H](C(=O)N[C@H]2CCCCNC(=O)[C@H](CC(N)=O)NC(=O)[C@@H](CC(=O)O)NC(=O)[C@H](Cc3cnc[nH]3)NC(=O)[C@@H](Cc3ccccc3)NC(=O)[C@H]([C@@H](C)CC)NC(=O)[C@@H](CCCN)NC2=O)[C@@H](C)CC)CS1 [Bacitracin] + CCC[C@@H]1C[C@@H](C(=O)N[C@@H]([C@H]2O[C@H](SC)[C@H](O)[C@@H](O)[C@H]2O)[C@H](C)Cl)N(C)C1 [Clindamycin]
fitness
Conditions	first compound 18.75 µg/mL	first compound 37.5 µg/mL	first compound 75 µg/mL	first compound 150 µg/mL
[1], partner 0.0312 µg/mL	–	–	0.0388	–
[1], partner 0.0625 µg/mL	–	0.067	0.0139	–
[1], partner 0.125 µg/mL	0.0166	0.0173	0.0265	–
[2], partner 0.0625 µg/mL	–	0.649	0.568	–
[2], partner 0.125 µg/mL	–	0.42	0.364	0.108
[2], partner 0.25 µg/mL	–	0.363	0.241	0.0433

fitness, [2], one replicate
Conditions	first compound 37.5 µg/mL	first compound 75 µg/mL	first compound 150 µg/mL
partner 0.0039 µg/mL	0.995	≥ 1	≥ 1
partner 0.0078 µg/mL	0.878	0.891	0.845
partner 0.0156 µg/mL	0.831	0.861	0.871

Conditions	Bliss interaction score
[3]	-0.052
[4]	0.0155
[5]	-0.071
[6]	-0.0851

CC[C@H](C)[C@H](N)C1=N[C@H](C(=O)N[C@@H](CC(C)C)C(=O)N[C@H](CCC(=O)O)C(=O)N[C@H](C(=O)N[C@H]2CCCCNC(=O)[C@H](CC(N)=O)NC(=O)[C@@H](CC(=O)O)NC(=O)[C@H](Cc3cnc[nH]3)NC(=O)[C@@H](Cc3ccccc3)NC(=O)[C@H]([C@@H](C)CC)NC(=O)[C@@H](CCCN)NC2=O)[C@@H](C)CC)CS1 [Bacitracin] + Cc1ncc([N+](=O)[O-])n1CCO [Metronidazole]
fitness
Conditions	partner 0.625 µg/mL	partner 0.781 µg/mL	partner 1.25 µg/mL	partner 1.562 µg/mL	partner 2.5 µg/mL	partner 3.124 µg/mL
[1], first compound 18.75 µg/mL	0.741	0.702	0.757	0.716	0.743	0.687
[1], first compound 37.5 µg/mL	0.308	0.21	0.243	0.243	0.181	0.26
[1], first compound 75 µg/mL	0.0054	0.03	0.0112	0.0279	0.0054	0.0683
[2], first compound 37.5 µg/mL	0.956	–	0.931	–	0.902	–
[2], first compound 75 µg/mL	0.964	–	0.931	–	0.903	–
[2], first compound 150 µg/mL	–	–	–	–	0.811	–

Conditions	Bliss interaction score
[3]	0.0714
[4]	0.0734
[5]	0.127
[6]	0.103

CC[C@H](C)[C@H](N)C1=N[C@H](C(=O)N[C@@H](CC(C)C)C(=O)N[C@H](CCC(=O)O)C(=O)N[C@H](C(=O)N[C@H]2CCCCNC(=O)[C@H](CC(N)=O)NC(=O)[C@@H](CC(=O)O)NC(=O)[C@H](Cc3cnc[nH]3)NC(=O)[C@@H](Cc3ccccc3)NC(=O)[C@H]([C@@H](C)CC)NC(=O)[C@@H](CCCN)NC2=O)[C@@H](C)CC)CS1 [Bacitracin] + Cc1cc(NS(=O)(=O)c2ccc(N)cc2)no1 [Sulfamethoxazol]
fitness
Conditions	partner 1 µg/mL	partner 2 µg/mL	partner 4 µg/mL
[1], first compound 18.75 µg/mL	0.775	0.76	0.819
[1], first compound 75 µg/mL	0.0141	0.009	0.0028
[2], first compound 37.5 µg/mL	0.856	0.855	0.941
[2], first compound 75 µg/mL	0.832	0.851	0.852

fitness, one replicate
Conditions	first compound 18.75 µg/mL	first compound 37.5 µg/mL	first compound 75 µg/mL	first compound 150 µg/mL
[1], partner 8 µg/mL	0.729	0.454	0.0253	–
[2], partner 0.5 µg/mL	–	0.947	0.998	≥ 1

Conditions	Bliss interaction score
[3]	0.104
[4]	-0.0266
[5]	0.0767
[6]	0.0966

Source: the supplement of paper PMC10627819
